Test results as given in patent US20050209157A1, “Short bioactive peptides and methods for their use” (priority 2001, published 2005).
Converted amounts (≈) assume the structure as drawn. No end group written: not given here.

Assays:
MCF7 = test: Anti-cancer assay, MTT, LD50; assay type: cell-based
Text: Numbers are LD50 values (μg/mL).

in vitro [1] = details: human, WI38 normal lung fibroblast cells, WI38 LD50, Table 41, lower part
WI38 = details: Table 42
[2] = Leukocyte (WBC) inhibition, toxicity LD50; assay type: cell-based, human; details: male, human, human leukocytes (buffy coat cells, mostly PBMCs); Table 41, lower part
Procedure: (§1) In vitro viability of human leukocyte cells in the presence of different peptides at different concentrations was determined by an Alamar Blue protocol. Alamar Blue (Promega, Madison, Wis.) is an indicator dye, formulated to measure quantitatively the proliferation and cytotoxicity of the cells. The dye consists of an oxidation-reduction (redox) indicator that yields a calorimetric change and a fluorescent signal in response to cellular metabolic activity.
(§2) Assay protocol: Blood from a human was drawn and centrifuged at 1500 rpm for 15 minutes at room temperature. The buffy coat cells at the plasma-red blood cell interface were aspirated. Buffy coat cells (mainly lymphocyte cells) were then transferred into 15 ml centrifuge tubes containing 5 ml of RPMI-1640 medium+10% Fetal Bovine Serum (Gibco, Grand Island, N.Y.). Additional medium was added to the tubes to bring the volume up to 10 ml. The buffy coat suspension was then carefully layered on 5 ml of Histopaque (Sigma Chemical Co., St. Louis, Mo.) and centrifuged at 1500 rpm for 30 minutes at room temperature. The interface which is mostly PBMCs (peripheral mononuclear cells) was aspirated and transferred to a 15 ml conical centrifuge tube and, resuspended in 2 ml cold RPMI-1640 and brought up to 15 ml with cold RPMI-1640 medium. Cells were centrifuged at 1500 rpm for 10 minutes. The supernatant was then aspirated and discarded. The cell pellet was re-suspended in 1 ml of cold RPMI 1640 and brought up to 15 ml with RPMI medium. This step was repeated twice, except that in the last step, the cells were resuspended with 1 ml of cold RPMI-1640 medium and cell counts were performed with a hemocytometer according to the Sigma cell culture catalogue.
(§3) Pokewood mitogen was used as a control along with positive and negative controls. Negative control cells were killed with 70% methanol. Positive (+) control cells were incubated in RPMI medium (untreated). […] of AlamarBlue was added to the cells, and readings were taken after 24 hours, 48 hours, 72 hours, and 96 hours using a fluorimeter (excitation 544/transmission 590 nm).
(§4) In choosing a peptide for possible treatment of a given indication it is important to match the therapeutic activity and specificity of the peptide with its possible toxic properties.
(§5) The protocols for WBC and WI38 stimulation have been discussed above. The RBC protocol follows Table 24.

human leukocytes (WBC) = test: Leukocyte (WBC) inhibition, toxicity LD50; assay type: cell-based; details: Table 42
Procedure: as §1, §2, §3, §4, §5

[3] = tested on: human red blood cells (RBC); test: in vitro; assay type: cell-based; details: Table 42
in vitro [4] = assay type: cell-based, human; details: human, human red blood cells, pH 7, Table 41, lower part; read-out: RBC LD50
[5] = tested on: Pseudomonas syringae pv. tabaci (PSPT)
[6] = tested on: Pseudomonas solanacearum (PS)
[7] = Synergy of Shiva-1 and lysozyme, percent viability; assay type: cell-based, Staphylococcus intermedius
Procedure: (§6) The percent viability of gram positive S. intermedius 19930, S. intermedius 20034, and S. aureus was determined relative to blank controls.

[8] = tested on: Xanthomonas campestris pv. campestris (XC)
[9] = Synergy of Shiva-1 and lysozyme, percent viability; assay type: cell-based, Staphylococcus aureus; details: S. aureus
Procedure: as §6

[10] = Synergy of Shiva-1 and lysozyme, percent viability; assay type: cell-based, Pseudomonas aeruginosa; details: Pseudomonas aeruginosa
Procedure: (§7) The percent viability of Pseudomonas aeruginosa was determined relative to blank controls.

[11] = tested on: Erwinia caratovora subsp. carotova (EC)
S. intermedius 19930 = test: Synergy of Shiva-1 and lysozyme, percent viability; assay type: cell-based, Staphylococcus intermedius
Procedure: as §6

S. intermedius 20034 = test: Synergy of Shiva-1 and lysozyme, percent viability; assay type: cell-based, Staphylococcus intermedius; details: lysozyme 10×
Procedure: as §6

S. aureus = test: Synergy of Shiva-1 and lysozyme, percent viability; assay type: cell-based, Staphylococcus aureus; details: lysozyme 10×
Procedure: as §6

Pseudomonas aeruginosa = test: Synergy of Shiva-1 and lysozyme, percent viability; assay type: cell-based
Procedure: as §7

With `CC(C)C[C@H](NC(=O)[C@H](C)NC(=O)[C@H](CC(C)C)NC(=O)[C@H](CCCCN)NC(=O)[C@H](C)NC(=O)[C@H](CC(C)C)NC(=O)[C@H](CCCCN)NC(=O)[C@H](CCCCN)NC(=O)[C@H](C)NC(=O)[C@H](CC(C)C)NC(=O)[C@H](CCCCN)NC(=O)[C@H](C)NC(=O)[C@H](CC(C)C)NC(=O)[C@H](CCCCN)NC(=O)[C@H](CCCCN)NC(=O)[C@H](C)NC(=O)[C@@H](N)C(C)C)C(N)=O` [32 (50)] the “MCF7 LD50” value (MCF7; Table 41, lower part) was 32 µg/mL, the “MCF7 LD50” value (MCF7; Table 42) was 32 µg/mL and the CC50 at 24 h (in vitro [1]) was 40 mg/L (≈ 22.1 µM). For the same molecule, the “WI38 LD50” value (WI38) was 40 µg/mL, the CC50 [2] was 420 mg/L (≈ 233 µM) and the “WBC LD50” value (human leukocytes (WBC)) was 420 µg/mL. For the same molecule, the “RBC LD50” value [3] was 420 µg/mL and the HC50 at 1 h (in vitro [4]) was 420 µg/mL.
For FAKKLAKLAKKLLAL-NH2 [20 (38)], the “MCF7 LD50” value (MCF7; Table 41, lower part) was 17 µg/mL, the “MCF7 LD50” value (MCF7; Table 42) was 17 µg/mL and the CC50 at 24 h (in vitro [1]) was 100 mg/L. The “WI38 LD50” value (WI38) was 100 µg/mL, the CC50 [2] was 54 mg/L and the “WBC LD50” value (human leukocytes (WBC)) was 54 µg/mL. The “RBC LD50” value [3] was 350 µg/mL and the HC50 at 1 h (in vitro [4]) was 350 µg/mL.
With “MPKWKVFKKIEKVGRNIRNGIVKAGPAIAVLGEAKALG-NH2 (C-terminus assumed) [SB-37]” the LD50 [5] was 5.20 µM, the LD50 [6] was 64.0 µM and the viability at 0.01 µM ([7]; S. intermedius 19930) was 100%. The viability at 0.1 µM ([7]; S. intermedius 19930) was 94.7%, the viability at 0.5 µM ([7]; S. intermedius 19930) was 69.4% and the viability at 1 µM ([7]; S. intermedius 19930) was 42.5%. The viability at 5 µM ([7]; S. intermedius 19930) was 36.1%, the viability at 10 µM ([7]; S. intermedius 19930) was 5.6% and the viability at 50 µM ([7]; S. intermedius 19930) was 0%. For the same molecule, the viability at 0.01 µM ([7]; S. intermedius 20034) was 100%, the viability at 0.5 µM ([7]; S. intermedius 20034) was 68% and the viability at 5 µM ([7]; S. intermedius 20034) was 35.1%. It also gave a viability at 50 µM ([7]; S. intermedius 20034) of 0%, an LD50 [8] of 0.57 µM and a viability at 0.01 µM [9] of 100%. It also gave a viability at 0.1 µM [9] of 100%, a viability at 0.5 µM [9] of 81% and a viability at 1 µM [9] of 47.5%. It also gave a viability at 5 µM [9] of 31.8%, a viability at 10 µM [9] of 5.6% and a viability at 50 µM [9] of 1.9%. For the same molecule, the viability at 0.01 µM [10] was 100%, the viability at 0.1 µM [10] was 79.4% and the viability at 1 µM [10] was 48.8%. For the same molecule, the viability at 5 µM [10] was 38.5%, the viability at 25 µM [10] was 0% and the LD50 [11] was 1.48 µM.
In the case of Lysozyme, the LD50 [5] is reported as >0.19 (key: > indicates greater than 1000.), the LD50 [6] is reported as >16.0 (key: > indicates greater than 1000.) and the percent viability (S. intermedius 19930; peptide concentration 0.01 μM, lysozyme at ten times the molar concentration (10×)) is reported as 100%. It also gave a percent viability (S. intermedius 19930; peptide concentration 0.1 μM, lysozyme 10×) of 100%, a percent viability (S. intermedius 19930; peptide concentration 0.5 μM, lysozyme 10×) of 81.3% and a percent viability (S. intermedius 19930; peptide concentration 1 μM, lysozyme 10×) of 53%. It also gave a percent viability (S. intermedius 19930; peptide concentration 5 μM, lysozyme 10×) of 49.5%, a percent viability (S. intermedius 19930; peptide concentration 10 μM, lysozyme 10×) of 34.4% and a percent viability (S. intermedius 19930; peptide concentration 50 μM, lysozyme 10×) of 22%. It also gave a percent viability (S. intermedius 20034; peptide concentration 0.01 μM) of 100%, a percent viability (S. intermedius 20034; peptide concentration 0.5 μM) of 59.0% and a percent viability (S. intermedius 20034; peptide concentration 5 μM) of 38.3%. For the same molecule, the percent viability (S. intermedius 20034; peptide concentration 50 μM) was 10.0%, the LD50 [8] was >0.027 (key: > indicates greater than 1000.) and the percent viability (S. aureus; peptide concentration 0.01 μM) was 100%. The percent viability (S. aureus; peptide concentration 0.1 μM) was 100%, the percent viability (S. aureus; peptide concentration 0.5 μM) was 100% and the percent viability (S. aureus; peptide concentration 1 μM) was 51.0%. For the same molecule, the percent viability (S. aureus; peptide concentration 5 μM) was 18.4%, the percent viability (S. aureus; peptide concentration 10 μM) was 13.3% and the percent viability (S. aureus; peptide concentration 50 μM) was 9.5%. The percent viability (Pseudomonas aeruginosa; peptide concentration 0.01 μM, lysozyme at same molar concentration (1×), relative to blank controls) was 100%, the percent viability (Pseudomonas aeruginosa; peptide concentration 0.1 μM, lysozyme 1×) was 82.2% and the percent viability (Pseudomonas aeruginosa; peptide concentration 1 μM, lysozyme 1×) was 52.1%. The percent viability (Pseudomonas aeruginosa; peptide concentration 5 μM, lysozyme 1×) was 7.9%, the percent viability (Pseudomonas aeruginosa; peptide concentration 25 μM, lysozyme 1×) was 0.4% and the LD50 [11] was >0.44 (key: > indicates greater than 1000.).
With `CC(C)C[C@H](NC(=O)[C@H](C)NC(=O)[C@H](CC(C)C)NC(=O)[C@H](CCCCN)NC(=O)[C@H](C)NC(=O)[C@H](CC(C)C)NC(=O)[C@H](CCCCN)NC(=O)[C@H](CCCCN)NC(=O)[C@H](C)NC(=O)[C@H](CC(C)C)NC(=O)[C@H](CCCCN)NC(=O)[C@H](C)NC(=O)[C@H](CC(C)C)NC(=O)[C@H](CCCCN)NC(=O)[C@H](CCCCN)NC(=O)[C@H](C)NC(=O)[C@@H](N)Cc1ccccc1)C(N)=O` [17 (35)] the “MCF7 LD50” value (MCF7; Table 41, lower part) was 9 µg/mL, the “MCF7 LD50” value (MCF7; Table 42) was 9 µg/mL and the CC50 at 24 h (in vitro [1]) was 25 mg/L (≈ 13.5 µM). For the same molecule, the “WI38 LD50” value (WI38) was 25 µg/mL, the CC50 [2] was 25 mg/L (≈ 13.5 µM) and the “WBC LD50” value (human leukocytes (WBC)) was 25 µg/mL. For the same molecule, the “RBC LD50” value [3] was 200 µg/mL and the HC50 at 1 h (in vitro [4]) was 200 µg/mL.
